Assay results taken from patent US20090062277A1, “PHOSPHODIESTERASE 10 INHIBITORS” (priority 2007, published 2009).

Target: T1, mPDE10A7 (Mus musculus, UniProt Q8CA95)
T1 sequence (Q8CA95 446-763 limits assumed): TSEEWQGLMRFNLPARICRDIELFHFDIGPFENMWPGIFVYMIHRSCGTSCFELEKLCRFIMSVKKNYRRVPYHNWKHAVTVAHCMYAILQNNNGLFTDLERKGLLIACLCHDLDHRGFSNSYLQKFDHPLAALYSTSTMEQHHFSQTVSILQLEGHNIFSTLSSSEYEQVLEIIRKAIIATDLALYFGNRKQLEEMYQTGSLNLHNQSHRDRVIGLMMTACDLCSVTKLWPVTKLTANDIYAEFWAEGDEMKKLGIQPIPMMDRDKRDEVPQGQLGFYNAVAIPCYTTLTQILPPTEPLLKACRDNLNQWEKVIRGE
Experiment: mPDE10A7 enzyme inhibition (IMAP fluorescence polarization)
Assay type: biochemical
Settings: fluorescein labeled cAMP or cGMP substrate, 30 min at room temperature
Description: Enzyme Activity. To analyze the enzyme activity, 5 μL of serial diluted mPDE10A7 containing lysate were incubated with equal volumes of diluted (100-fold) fluorescein labeled cAMP or cGMP for 30 min in MDC HE 96-well assay plates (Molecular Devices Corp., Sunnyvale Calif.) at room temperature. Both the enzyme and the substrates were diluted in the following assay buffer: Tris/HCl (pH 8.0) 50 mM, MgCl2 5 mM, 2-mercaptoethanol 4 mM, and BSA 0.33 mg/mL. After incubation, the reaction was stopped by adding 20 μL of diluted (400-fold) binding reagents and was incubated for an hour at room temperature. The plates were counted in an Analyst GT (Molecular Devices) for fluorescence polarization. An IMAP assay kit (Molecular Devices) was used to assess enzyme properties of mPDE10A7. Data were analyzed with SOFTMAX PRO software (Molecular Devices).
Enzyme Inhibition. To check the inhibition profile, 10 μL of serial diluted compounds were incubated with 30 μl of diluted PDE enzymes in a 96-well polystyrene assay plate for 30 min at room temperature. After incubation, 5 μL of the compound-enzyme mixture were aliquoted into a MDC HE black plate, mixed with 5 μl of 100-fold diluted fluorescein labeled substrates (cAMP or cGMP), and incubated for 30 min at room temperature. The reaction was stopped by adding 20 μL of diluted binding reagents and counted in an Analyst GT for fluorescence polarization. The data were analyzed with SoftMax Pro.

Compound	IC50
COc1cc2nncc(-c3ccc(N4CCN(C(=O)C5CC5)CC4)nc3)c2cc1OC [Cpd 22]	4.85 nM
COc1cc2cncc(-c3cnc(N4CCC(C(C)(C)O)CC4)c(C)c3)c2cc1OC [Cpd 12]	14.7 nM
COc1cc2nncc(-c3ccc(N4CCN(c5ncc(Cl)cc5Cl)CC4)nc3)c2cc1OC [Cpd 14]	417 nM
COc1cc2nncc(-c3ccc(N4CCCC4CN(C)C)nc3)c2cc1OC (centres unmarked) [Cpd 20]	60.2 nM
COc1cc2nccc(-c3cnc(N4CCC(C(C)(C)O)CC4)c(C)c3)c2cc1OC [Cpd 24]	4.22 nM
COc1cc2nncc(-c3cnc(N4CCC(O)(C5CC5)CC4)c(C)c3)c2cc1OC [Cpd 4, 4-cyclopropyl-1-(5-(6,7-dimethoxycinnolin-4-yl)-3-methylpyridin-2-yl)piperidin-4-ol]	2.8 nM
COc1cc2nncc(-c3cnc(N4CCC(C)(O)CC4)c(C)c3)c2cc1OC [Cpd 7, 1-(5-(6,7-dimethoxycinnolin-4-yl)-3-methylpyridin-2-yl)-4-methylpiperidin-4-ol]	0.6 nM
COc1cc2nncc(-c3ccc(N4CCN(CC5CC5)CC4)nc3)c2cc1OC [Cpd 17]	10.2 nM
COC[C@H]1CCCN1c1ncc(-c2cnnc3cc(OC)c(OC)cc23)cc1Cl [Cpd 9]	1 nM
COc1cc2nncc(-c3cnc(N4CCN(c5ccc(F)cc5F)CC4)c(C)c3)c2cc1OC [Cpd 16]	11 nM
COc1cc2nncc(-c3ccc(N4CCN(C(C)=O)CC4)nc3)c2cc1OC [Cpd 18]	6.56 nM
COc1cc2nncc(-c3ccc(N4CCC(O)(c5ccccn5)CC4)nc3)c2cc1OC [Cpd 2, 1-(5-(6,7-dimethoxycinnolin-4-yl)pyridin-2-yl)-4-(pyridin-2-yl)piperidin-4-ol]	5.58 nM
COc1cc2nncc(-c3ccc(N4CCCC4c4cccs4)nc3)c2cc1OC (centres unmarked) [Cpd 25]	7.42 nM
COc1cc2nncc(-c3cnc(N4CCC(O)(c5ccccn5)CC4)c(Cl)c3)c2cc1OC [Cpd 8, 1-(3-chloro-5-(6,7-dimethoxycinnolin-4-yl)pyridin-2-yl)-4-(pyridin-2-yl)piperidin-4-ol]	3.07 nM
COc1cc2nncc(-c3ccc(N4CCC(C(=O)N5CCOCC5)CC4)nc3)c2cc1OC [Cpd 27]	5.63 nM
COc1cc2nncc(-c3cnc(N4CCC(O)(c5cccnc5)CC4)c(C)c3)c2cc1OC [Cpd 13]	1.02 nM
COc1cc2nncc(-c3cnc(N4CCC(C(N)=O)CC4)c(C)c3)c2cc1OC [Cpd 28]	2.08 nM
COc1cc2c(-c3ccc(N4CCC(O)(c5ccccc5)CC4)nc3)cnnc2cc1C [Cpd 35]	191 nM
COc1cc2nncc(-c3ccc(N4CCN(c5cccc(C(F)(F)F)c5)CC4)nc3)c2cc1OC [Cpd 15]	126 nM
CCOC(=O)C1CCN(c2ccc(-c3cnnc4cc(OC)c(OC)cc34)cn2)CC1 [Cpd 30]	9.57 nM
